Experimental data from patent US12685726B2, “Sulfoximines as inhibitors of NaV1.8” (Gruenenthal GmbH, priority 2022, dated 2026).

Target: T1, human NaV 1.8 (Homo sapiens, UniProt Q9Y5Y9)
T1 construct: expressed in transfected cells; host or cells: HEK (recombinant cell line)
Experiment: Automated whole-cell patch clamp (Qube384) voltage-clamp recordings of sodium currents in HEK-NaV1.8 cell line
Type: cell-based
Settings: read-out: Potency category (human NaV 1.8 IC50)
Protocol: Electrophysiology: Voltage-Clamp Recordings
The following NaV1.8 recombinant cell line was used for recordings: HEK-NaV1.8 (NM_006514.1) with b3 (NM_018400.3).
Sodium currents were measured using the patch clamp technique in the whole-cell configuration using the Qube384 (Sophion A/S, Copenhagen, Denmark) automated voltage clamp platform. “Multi hole” plates were used for the cell line expressing NaV1.8 while “single hole” plates were used for the recombinant cell lines expressing the other subtypes. Appropriate filters (for minimum seal resistance and minimum current size) and series resistance compensation (for high quality sodium channel recordings) were applied. Data was collected at ambient room temperature or 19° C.
The recording extracellular solution contained (in mM): NaCl 145 mM, KCl 4 mM, CaCl2 2 mM, MgCl2 1 mM, HEPES 10 mM, Glucose 10 mM, pH 7.4 (NaOH). The intracellular recording solution contained (in mM): CsF 120 mM, CsCl 20 mM, NaCl 10 mM, EGTA 10 mM, HEPES 10 mM, pH 7.2 (CsOH). Currents were recorded at 25 kHz sampling frequency and filtered at 5 kHz. Series resistance compensation was applied at 65%.
Vehicle (VEH) is the control condition where cells are exposed to 0.3% DMSO without compound. All runs include VEH controls being exposed to the same voltage protocols to assess non-compound related phenomena such as run down and then used to isolate compound dependent effects on currents.
To check for state-dependent inhibition, the following voltage-sequence was applied every 20 seconds:
From a resting membrane potential of −120 mV, the first test pulse (P1; 20 ms to −10 mV) was applied to check for channels in the Resting State followed by a brief recovery (100 ms to −120 mV), then holding the membrane voltage to V1/2 (4 seconds at voltage to obtain half the channel at Rest and half Inactivated) with a subsequent second test pulse (P2; 20 ms to −10 mV) to check for channels in the Inactivated State, followed by another brief recovery (20 ms to −120 mV) and a final third test pulse (P3; 20 ms to −10 mV) to check for recovered channels.
To check for frequency-dependent inhibition, a 10 Hz protocol and a 20 Hz protocol were applied; namely,
From a resting membrane potential of −120 mV, 40-pulses (10 ms to −10 mV) was applied at 10 Hz (at 100 ms between pulses) and then at 20 Hz (at 50 ms between pulses).
Each parameter was recorded (P1, P2, P3, P40 from 10 Hz and P40 from 20 Hz) during a control period (lasting 5 minutes) when establishing the baseline and during compound period (lasting ~12 minutes) when test compound (or vehicle) was applied. For each parameter, the value at the end of the compound period was normalized to the vehicle baseline; as follows
To adjust for any variance in the Na^+ current signal during the compound period (owing to cumulative inactivation independent of compound or shifts in biophysics over time), a dedicated segment of the recording wells in each 384 plate were dedicated to having only vehicle exposure. These vehicle-only recordings were used to correct for any apparent “run-up” or “run-down” in the experiment.
The adjusted inhibition was calculated as follows: […]
Percent inhibition was determined and IC50 values were calculated using a 4 parameter logistic model within XLFit Software (IDBS, Boston MA): F
[formula] where A and B are the maximal and minimum inhibition respectively, C is the IC50 concentration and D is the (Hill) slope.

T1 sequence (Q9Y5Y9 whole entry): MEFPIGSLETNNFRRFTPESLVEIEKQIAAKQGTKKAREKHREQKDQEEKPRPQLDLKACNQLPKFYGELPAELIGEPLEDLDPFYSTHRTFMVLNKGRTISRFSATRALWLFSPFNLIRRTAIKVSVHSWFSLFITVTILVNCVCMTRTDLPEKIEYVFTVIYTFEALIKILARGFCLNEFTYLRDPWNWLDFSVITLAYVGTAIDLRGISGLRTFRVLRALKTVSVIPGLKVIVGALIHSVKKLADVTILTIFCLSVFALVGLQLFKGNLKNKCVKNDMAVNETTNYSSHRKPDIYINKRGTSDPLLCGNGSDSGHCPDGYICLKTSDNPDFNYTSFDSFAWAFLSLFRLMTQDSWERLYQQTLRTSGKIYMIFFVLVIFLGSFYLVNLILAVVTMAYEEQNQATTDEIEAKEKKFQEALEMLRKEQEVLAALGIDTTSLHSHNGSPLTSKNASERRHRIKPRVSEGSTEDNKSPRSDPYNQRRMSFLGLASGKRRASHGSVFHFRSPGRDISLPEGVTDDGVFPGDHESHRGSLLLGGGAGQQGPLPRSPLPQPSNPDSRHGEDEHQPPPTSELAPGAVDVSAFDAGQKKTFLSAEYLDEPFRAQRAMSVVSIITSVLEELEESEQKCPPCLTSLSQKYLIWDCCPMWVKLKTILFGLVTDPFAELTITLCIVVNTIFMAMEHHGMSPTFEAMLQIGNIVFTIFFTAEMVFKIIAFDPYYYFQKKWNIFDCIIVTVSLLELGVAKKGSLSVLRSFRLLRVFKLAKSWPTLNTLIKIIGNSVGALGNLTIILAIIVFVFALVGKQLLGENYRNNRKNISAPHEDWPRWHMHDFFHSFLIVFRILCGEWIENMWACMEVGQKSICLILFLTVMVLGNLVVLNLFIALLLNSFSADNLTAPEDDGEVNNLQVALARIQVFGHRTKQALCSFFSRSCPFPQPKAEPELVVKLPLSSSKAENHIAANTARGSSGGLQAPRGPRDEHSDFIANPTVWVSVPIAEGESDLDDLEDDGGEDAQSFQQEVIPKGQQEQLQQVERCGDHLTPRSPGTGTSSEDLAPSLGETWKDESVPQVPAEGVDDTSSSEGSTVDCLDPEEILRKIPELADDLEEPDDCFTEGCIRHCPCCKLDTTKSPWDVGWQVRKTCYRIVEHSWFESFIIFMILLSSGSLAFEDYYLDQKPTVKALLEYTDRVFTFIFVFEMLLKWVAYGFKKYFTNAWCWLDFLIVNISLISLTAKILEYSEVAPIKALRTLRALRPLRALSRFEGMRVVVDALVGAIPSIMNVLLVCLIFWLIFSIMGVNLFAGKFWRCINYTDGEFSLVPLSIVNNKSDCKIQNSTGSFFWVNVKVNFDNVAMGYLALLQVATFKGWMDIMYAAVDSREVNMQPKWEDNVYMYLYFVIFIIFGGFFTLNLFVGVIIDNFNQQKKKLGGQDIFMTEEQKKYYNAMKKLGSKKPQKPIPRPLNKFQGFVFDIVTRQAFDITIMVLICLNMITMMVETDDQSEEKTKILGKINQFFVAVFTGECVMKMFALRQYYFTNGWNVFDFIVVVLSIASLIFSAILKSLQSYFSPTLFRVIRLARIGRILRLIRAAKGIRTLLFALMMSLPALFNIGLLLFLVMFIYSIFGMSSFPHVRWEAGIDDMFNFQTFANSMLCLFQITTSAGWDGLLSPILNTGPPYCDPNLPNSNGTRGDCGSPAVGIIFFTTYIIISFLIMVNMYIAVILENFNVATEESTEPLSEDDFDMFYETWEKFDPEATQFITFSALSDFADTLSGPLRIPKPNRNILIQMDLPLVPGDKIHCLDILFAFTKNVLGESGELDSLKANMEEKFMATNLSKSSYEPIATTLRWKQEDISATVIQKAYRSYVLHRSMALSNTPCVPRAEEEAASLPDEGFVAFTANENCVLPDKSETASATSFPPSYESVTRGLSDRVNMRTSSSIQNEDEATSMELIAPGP

Row | IC50 [nM] | SMILES
1 | ≤ 100 | CC1(Cn2nc(C(C)(F)F)c(C(F)(F)F)c2C(=O)Nc2ccnc(S(C)(=N)=O)c2)CC(F)(F)C1 (single isomer, unassigned) [Example 75a, 1-((3,3-difluoro-1-methylcyclobutyl)methyl)-3-(1,1-difluoroethyl)-N-(2-(S-methylsulfonimidoyl)pyridin-4-yl)-4-(trifluoromethyl)-1H-pyrazole-5-carboxamide]
2 | ≤ 100 | C[S@](=N)(=O)c1cc(NC(=O)c2c(C(F)(F)F)c(C3CC3)nn2C[C@]2(C)C[C@@H](C(F)(F)F)C2)ccn1 (single isomer, unassigned) [Example 86d, 3-cyclopropyl-1-(((cis)-1-methyl-3-(trifluoromethyl)cyclobutyl)methyl)-N-(2-(S-methylsulfonimidoyl)pyridin-4-yl)-4-(trifluoromethyl)-1H-pyrazole-5-carboxamide]
3 | ≤ 100 | CC1(Cn2nc(C3(C#N)CC3)c(C(F)(F)F)c2C(=O)Nc2ccnc(S(C)(=N)=O)c2)CC(F)(F)C1 (single isomer, unassigned) [Example 68a, 3-(1-cyanocyclopropyl)-1-((3,3-difluoro-1-methylcyclobutyl)methyl)-N-(2-(S-methylsulfonimidoyl)pyridin-4-yl)-4-(trifluoromethyl)-1H-pyrazole-5-carboxamide]
4 | ≤ 100 | CS(=N)(=O)c1cc(NC(=O)c2c(C(F)(F)F)c(C3CC3)nn2CC2C3(CC3)C23CC3)ccn1 (single isomer, unassigned) [Example 80b, 3-cyclopropyl-1-(dispiro[2.0.24.13]heptan-7-ylmethyl)-N-(2-(S-methylsulfonimidoyl)pyridin-4-yl)-4-(trifluoromethyl)-1H-pyrazole-5-carboxamide]
5 | ≤ 100 | C[C@H]1C[C@@H]1c1nn(CC2(C)CC(F)(F)C2)c(C(=O)Nc2ccnc([S@](C)(=N)=O)c2)c1C(F)(F)F (single isomer, unassigned) [Example 65a, 1-((3,3-Difluoro-1-methylcyclobutyl)methyl)-3-((trans)-2-methylcyclopropyl)-N-(2-(S-methylsulfonimidoyl)pyridin-4-yl)-4-(trifluoromethyl)-1H-pyrazole-5-carboxamide]
6 | 100 to 1000 | CC(=O)N1CC2(CCC2Cn2nc(C3CC3)c(C(F)(F)F)c2C(=O)Nc2ccnc(S(C)(=N)=O)c2)C1 (single isomer, unassigned) [Example 140b, 1-((2-Acetyl-2-azaspiro[3.3]heptan-5-yl)methyl)-3-cyclopropyl-N-(2-(S-methylsulfonimidoyl)pyridin-4-yl)-4-(trifluoromethyl)-1H-pyrazole-5-carboxamide]
7 | ≤ 100 | CS(=N)(=O)c1cc(NC(=O)c2c(C(F)(F)F)c(C34CC(C3)C4)nn2CC2C[C@@H]2C(F)F)ccn1 (stereo in doubt) [Example 146, 3-(Bicyclo[1.1.1]pentan-1-yl)-1-(((trans)-2-(difluoromethyl)cyclopropyl)methyl)-N-(2-(S-methylsulfonimidoyl)pyridin-4-yl)-4-(trifluoromethyl)-1H-pyrazole-5-carboxamide]
8 | ≤ 100 | CC1(Cn2nc(C3CC3F)c(C(F)(F)F)c2C(=O)Nc2ccnc(S(C)(=N)=O)c2)CC(F)(F)C1 (racemic) [Example 62a, 1-((3,3-Difluoro-1-methylcyclobutyl)methyl)-3-(2-fluorocyclopropyl)-N-(2-(S-methylsulfonimidoyl)pyridin-4-yl)-4-(trifluoromethyl)-1H-pyrazole-5-carboxamide]
9 | ≤ 100 | CC1(Cn2nc(C3CC3)c(C(F)(F)F)c2C(=O)Nc2ccnc(S(C)(=N)=O)c2)CC(F)(F)C1 (single isomer, unassigned) [Example 1a, 3-cyclopropyl-1-((3,3-difluoro-1-methylcyclobutyl)methyl)-N-(2-(S-methylsulfonimidoyl)pyridin-4-yl)-4-(trifluoromethyl)-1H-pyrazole-5-carboxamide]
10 | ≤ 100 | C[S@@](=N)(=O)c1cc(NC(=O)c2c(C(F)(F)F)c(C3CC3)nn2C[C@H]2CC23CC3)ccn1 (single isomer, unassigned) [Example 78c, 3-cyclopropyl-N-(2-(S-methylsulfonimidoyl)pyridin-4-yl)-1-(spiro[2.2]pentan-1-ylmethyl)-4-(trifluoromethyl)-1H-pyrazole-5-carboxamide]
11 | ≤ 100 | Cc1c(C(C)(F)F)nn(CC2(C)CCC(F)(F)CC2)c1C(=O)Nc1ccnc(S(C)(=N)=O)c1 (single isomer, unassigned) [Example 11b, 1-((4,4-difluoro-1-methylcyclohexyl)methyl)-3-(1,1-difluoroethyl)-4-methyl-N-(2-(S-methylsulfonimidoyl)pyridin-4-yl)-1H-pyrazole-5-carboxamide]
12 | ≤ 100 | CS(=N)(=O)c1cc(NC(=O)c2c(C(F)(F)F)c(C3CC3)nn2CC23CC(CC2(F)F)C3)ccn1 (single isomer, unassigned) [Example 103a, 3-cyclopropyl-1-((2,2-difluorobicyclo[2.1.1]hexan-1-yl)methyl)-N-(2-(S-methylsulfonimidoyl)pyridin-4-yl)-4-(trifluoromethyl)-1H-pyrazole-5-carboxamide]
13 | ≤ 100 | Cc1c(C(C)(F)F)nn(CC2(C)CCC(F)(F)CC2)c1C(=O)Nc1ccnc(S(C)(=N)=O)c1 (single isomer, unassigned) [Example 11a, 1-((4,4-difluoro-1-methylcyclohexyl)methyl)-3-(1,1-difluoroethyl)-4-methyl-N-(2-(S-methylsulfonimidoyl)pyridin-4-yl)-1H-pyrazole-5-carboxamide]
14 | ≤ 100 | CC1(Cn2nc(C3CC3)c(C(F)(F)F)c2C(=O)Nc2cncc(S(C)(=N)=O)c2)CC(F)(F)C1 (single isomer, unassigned) [Example 46a, 3-cyclopropyl-1-((3,3-difluoro-1-methylcyclobutyl)methyl)-N-(5-(S-methylsulfonimidoyl)pyridin-3-yl)-4-(trifluoromethyl)-1H-pyrazole-5-carboxamide]
15 | ≤ 100 | CC1(Cn2nc(C3CCCC3)c(C(F)(F)F)c2C(=O)Nc2ccnc(S(C)(=N)=O)c2)CC(F)(F)C1 (single isomer, unassigned) [Example 59b, 3-Cyclopentyl-1-((3,3-difluoro-1-methylcyclobutyl)methyl)-N-(2-(S-methylsulfonimidoyl)pyridin-4-yl)-4-(trifluoromethyl)-1H-pyrazole-5-carboxamide]
16 | ≤ 100 | CC1(Cn2nc(C3(F)CC3)c(C(F)F)c2C(=O)Nc2ccc(F)c(S(C)(=N)=O)c2)CC(F)(F)C1 (single isomer, unassigned) [Example 133b, 1-((3,3-Difluoro-1-methylcyclobutyl)methyl)-4-(difluoromethyl)-N-(4-fluoro-3-(S-methylsulfonimidoyl)phenyl)-3-(1-fluorocyclopropyl)-1H-pyrazole-5-carboxamide]
17 | ≤ 100 | CS(=N)(=O)c1cc(NC(=O)c2c(C(F)(F)F)c(C3CC3)nn2CC23CC2CC(F)(F)C3)ccn1 (single isomer, unassigned) [Example 95b, 3-Cyclopropyl-1-((3,3-difluorobicyclo[3.1.0]hexan-1-yl)methyl)-N-(2-(S-methylsulfonimidoyl)pyridin-4-yl)-4-(trifluoromethyl)-1H-pyrazole-5-carboxamide]
18 | ≤ 100 | CC1(Cn2nc(C34CC(F)(C3)C4)c(C(F)F)c2C(=O)Nc2ccc(F)c(S(C)(=N)=O)c2)CC(F)(F)C1 (single isomer, unassigned) [Example 138a, 1-((3,3-Difluoro-1-methylcyclobutyl)methyl)-4-(difluoromethyl)-N-(4-fluoro-3-(S-methylsulfonimidoyl)phenyl)-3-(3-fluorobicyclo[1.1.1]pentan-1-yl)-1H-pyrazole-5-carboxamide]
